Patent publication US20050214738A1, “Conditional allele system” (priority 2003, published 2005)

Assays:
[1] = molecular target: T1, GSK-3βFRB* (UniProt P26883+P42345, K2095P/T2098L/W2101F); test: Inducible stabilization of GSK-3βFRB* in knock-in MEFs (Western blot); format: cell-based, mouse; design: The minimal FRB domain comprises amino acids 2025-2114 of human mTor; endogenous in cells; host or cells: MEFs from GSK-3β^FRB* knock-in mice (fusion expressed from the targeted endogenous locus)
Protocol: MEFs cell lines were prepared from E14.5-E16.5 embryos of indicated genotypes by eviscerating the embryos in HBSS, treating the remaining tissue with 0.2% collagenase and trypsin, and plating the cells in DMEM containing 10% FCS, antibiotics, and 0.1 mM β-mercaptoethanol. Once established, the MEFs were cultured using standard techniques and treated with various small molecules as indicated.
Western Blot analysis was carried out using cell lysates prepared in RIPA buffer (10 mM Tris pH 7.2, 150 mM NaCl, 0.1% SDS, 1% Triton X-100, 1% deoxycholate, 5 mM EDTA, protease inhibitor cocktail (Invitrogen Life Technologies)) and then separated using standard SDS/PAGE before being transferred to PVDF (Millipore) using standard Western blotting procedures. The anti-GSK-3β antibody, used at 1:2500, the anti-HSP-90 antibody, 1:2500, and the anti-FKBP12 antibody, 1:2500, were purchased from BD Transduction Labs. The anti-β-catenin antibody, 1:2000, and anti-HSP-70 antibody, 1:1000 were purchased from Santa Cruz Biotechnology. […] In all cases, Western blots were incubated overnight with the appropriate primary antibodies in TBST (10 mM Tris 8.0, 150 mM NaCl, 0.1% Tween-20) containing 10% dry milk, and then washed 3 times with TBST. The blots were subsequently incubated for 30 minutes with HRP-conjugated secondary antibodies from Jackson Immunoresearch, washed 3 more times with TBST, and then developed using standard ECL reagents (Amersham Biosciences) and Kodak XAR film.

[2] = molecular target: T1, GSK-3βFRB*; test: Stabilization of GSK-3βFRB* in embryos of injected pregnant mice; format: in vivo, mouse; design: The minimal FRB domain comprises amino acids 2025-2114 of human mTor; endogenous in cells; host or cells: MEFs from GSK-3β^FRB* knock-in mice (fusion expressed from the targeted endogenous locus); settings: 200 mg/kg/day IP to mother, embryos harvested at E11.5
Protocol: GSK-3β^+/FRB* mice were intercrossed and the date of vaginal plug observation was set as E0.5. At E9.5, the stage of embryonic development was confirmed by ultrasonography (Chang, C. P. et al. “Sonographic Staging of the Developmental Status of Mouse Embryos in Utero.” (2003) Published in Genesis 36, 7-11) and mice were weighed. Drug administration commenced at E10.0. C20-MaRap was dissolved as a stock in N,N-dimethylacetamide (DMA) and was diluted into a delivery vehicle containing 10% Polyethylene glycol 400, 17% Polyoxyethylene sorbitan monooleate and 10% DMA to a final concentration of […]. 100 μL was immediately injected intraperitoneally (IP) to pregnant females with injections repeated twice more at 12 hour intervals to E11.5 when mice were sacrificed, and embryos and organs were dissected and frozen in […]. Tissues anterior to the embryonic forelimbs of individual embryos were used for preparation of protein extracts with the remainder used to determine the concentration of drug and for genotyping.

[3] = molecular target: T1, GSK-3βFRB*; test: Stabilization of transfected GSK-3β FRB* in MEFs (Western blot); format: cell-based, mouse; design: The minimal FRB domain comprises amino acids 2025-2114 of human mTor; GSK-3β (fusion partner); expressed in transfected cells; host or cells: wild-type mouse embryonic fibroblasts (MEFs); settings: transiently transfected MEFs, drug for 36 h
Protocol: MEFs were transfected using FuGENE-6 (Roche Applied Science). Plasmid DNA (5 μg per 6 cm dish) was mixed in a 1:2 ratio with the FuGENE-6 reagent in Opti-MEM (Invitrogen Life Technologies) before being applied to the cells growing in DMEM/10% FCS and containing C20-MaRap where appropriate. After 12 hours, the cells were split to 6 well plates before further drug treatments to ensure each well contained an equivalently transfected population.
Western Blot analysis was carried out using cell lysates prepared in RIPA buffer (10 mM Tris pH 7.2, 150 mM NaCl, 0.1% SDS, 1% Triton X-100, 1% deoxycholate, 5 mM EDTA, protease inhibitor cocktail (Invitrogen Life Technologies)) and then separated using standard SDS/PAGE before being transferred to PVDF (Millipore) using standard Western blotting procedures. The anti-GSK-3β antibody, used at 1:2500, the anti-HSP-90 antibody, 1:2500, and the anti-FKBP12 antibody, 1:2500, were purchased from BD Transduction Labs. The anti-β-catenin antibody, 1:2000, and anti-HSP-70 antibody, 1:1000 were purchased from Santa Cruz Biotechnology. The anti-BRG1 antibody, 1:1000, was previously prepared in our laboratory (Khavari, P. A. et al. “BRG1 Contains a Conserved Domain of the SWI2/SNF2 Family Necessary for Normal Mitotic Growth and Transcription.” (1993) Published in Nature 366, 170-174). […]

T1 sequence (P42345 2025-2114 K2095P/T2098L/W2101F): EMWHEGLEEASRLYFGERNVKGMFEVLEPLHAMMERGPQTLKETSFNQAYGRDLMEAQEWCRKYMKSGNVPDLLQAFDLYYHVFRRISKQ
T1 sequence (P26883 2-108): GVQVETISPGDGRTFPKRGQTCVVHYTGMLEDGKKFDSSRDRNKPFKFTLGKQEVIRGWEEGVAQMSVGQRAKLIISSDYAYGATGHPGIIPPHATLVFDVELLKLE

## C20-(R or S)-methallylrapamycin [C20-MaRap]
[1]; GSK-3βFRB*/FRB* MEFs, 36 hour treatment, 100 nM
  GSK-3βFRB* levels: restored GSK-3βFRB* levels
[1]; MEFs
  effect on wild-type GSK-3β, β-catenin, or HSP-90 expression: neither drug had an effect
[1]; doubly homozygous GSK-3βFRB* and FKBP12IM, 100 nM 36 hours
  stabilization in fibroblasts lacking detectable FKBP12 expression: complete loss of C20-MaRap-induced stabilization
[1]; heterozygous MEFs, 100 nM
  time of half maximal stabilization: 8 to 12 h
  time to complete stabilization: approximately 24 hours
[2]
  GSK-3βFRB* protein levels in embryos: partially restored
[3]
  GSK-3β FRB* expression: restored GSK-3β FRB* expression to normal
